In general, ED50 refers to the dose at which the effect has come halfway, by size or by number of responders.

This passage reports ED50 results from patent publication US4939159A, “Azaindole derivatives useful as cholesterol biosynthesis inhibitors” (Sandoz Pharm. Corp., priority 1989, dated 1990).

This assay has as its system 3β-hydroxysterol synthesis. The assay can be described thus: Test B. In Vivo Cholesterol Biosynthesis Inhibition Test. Conditions: Rattus norvegicus, po; rats, orally administered; read-out: ED50 (dose producing 50% inhibition of 3β-hydroxysterol synthesis).

Protocol: Test B. In Yivo Cholesterol Biosynthesis Inhibition Test:
In this test the rats are orally administered the test substance (compound of Formula I) at a dose of 0.025-200 mg/kg body weight. The obtained ED50 the dose of the test substance observed or calculated to produce a 50% inhibition of 3β -hydroxysterol synthesis.

With `CC[C@H](C)C(=O)O[C@H]1C[C@@H](C)C=C2C=C[C@H](C)[C@H](CC[C@@H]3C[C@@H](O)CC(=O)O3)[C@H]21` [Mevinolin], the ED50 was 0.38 mg/kg.
